In this assay the test system is HIV-1. As to conditions: cMAGI/MAGI cells; for IC50: 50% reduction in infectious virus titer; for IC90: 90% reduction in infectious virus titer. An excerpt: The number of stained nuclei can thus be interpreted as equal to the number of infectious virions in the challenge inoculum if there is only one round of infection prior to staining.

The results in this text go back to patent publication US7049415B2 (priority 2002, dated 2006).

Usually IC50 stands for the concentration that gives 50% inhibition. Low values mean greater potency in that assay, high ones weaker potency in that assay. The term IC90 denotes the concentration at which the effect reaches the 90% level. A high value points to weaker potency. “Pegylated T20 with mPEG10k-propionaldehyde [Example 3]” displayed a half-maximal inhibitory concentration (IC50) of 0.261 µg/mL and an IC90 of 3.074 µg/mL.
In the same order, the values of “Pegylated T20 with PEG10K-butanoaldehyde [Example 2]” are 0.266 µg/mL and 2.536 µg/mL.
